Experiments:
Type in all cases: biochemical
Kit = biological target: T1, Kit (Homo sapiens, UniProt P10721); experiment: AlphaScreen kinase assay, Kit; conditions: read-out: IC50, activity toward kinase Kit
T1 construct: P1332.N6 BI PTP KIT M552-K948-X COD; His6 (N); made in house; host or cells: E. coli (PTP1B co-expressed)

Ret = biological target: T2, Ret (Homo sapiens, UniProt P07949); experiment: AlphaScreen kinase assay, Ret; conditions: read-out: IC50, activity toward kinase Ret
T2 construct: P1378.pET-SF BI-PTP RET H661-R1012 HIS; made in house
T2 sequence (P07949 with tags, fused parts or gaps): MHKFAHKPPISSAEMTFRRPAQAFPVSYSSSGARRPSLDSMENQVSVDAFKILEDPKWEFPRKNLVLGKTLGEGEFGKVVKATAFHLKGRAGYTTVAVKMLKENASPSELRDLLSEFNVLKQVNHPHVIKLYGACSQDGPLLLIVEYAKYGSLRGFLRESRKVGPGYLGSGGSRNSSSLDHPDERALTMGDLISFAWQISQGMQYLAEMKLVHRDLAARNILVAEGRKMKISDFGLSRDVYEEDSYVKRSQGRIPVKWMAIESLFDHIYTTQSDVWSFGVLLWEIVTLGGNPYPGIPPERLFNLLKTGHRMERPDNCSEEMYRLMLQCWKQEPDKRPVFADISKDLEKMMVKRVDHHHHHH

Flt1 = biological target: T3, Flt1 (Homo sapiens, UniProt P17948); experiment: AlphaScreen kinase assay, Flt1; conditions: read-out: IC50, activity toward kinase Flt1
T3 construct: P1826.pETN6 BI-PTP FLT1 M799-D1165-X WT; His6 (N); made in house; host or cells: E. coli (PTP1B co-expressed)
T3 sequence (P17948 with tags, fused parts or gaps): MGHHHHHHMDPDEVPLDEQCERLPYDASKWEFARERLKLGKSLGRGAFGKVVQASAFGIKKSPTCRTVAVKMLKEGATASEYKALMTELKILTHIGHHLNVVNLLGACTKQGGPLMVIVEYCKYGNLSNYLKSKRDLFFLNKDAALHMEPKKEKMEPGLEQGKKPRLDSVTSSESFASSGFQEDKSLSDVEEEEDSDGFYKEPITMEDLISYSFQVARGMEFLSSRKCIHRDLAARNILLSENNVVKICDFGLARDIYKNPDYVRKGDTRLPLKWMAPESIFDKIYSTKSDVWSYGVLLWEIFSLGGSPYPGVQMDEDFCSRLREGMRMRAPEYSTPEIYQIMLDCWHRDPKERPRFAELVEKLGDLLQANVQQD

Fms = biological target: T4, Fms (Homo sapiens, UniProt P07333); experiment: AlphaScreen kinase assay, Fms; conditions: read-out: IC50, activity toward kinase Fms
T4 construct: purchased Upstate Biotechnology

B-Raf V600E = biological target: T5, B-Raf V600E (Homo sapiens, UniProt P15056, V600E); experiment: AlphaScreen kinase assay, B-Raf V600E; conditions: read-out: IC50, activity toward kinase B-Raf V600E
T5 construct: P4254. pFastBacBD-CDC37 BRAF D437-K722-X, V600E; His6 with pFastBac HT leader (TEV site) (N); made in house; host or cells: Sf9 (baculovirus; chaperone CDC37 co-expressed)

FGFR1 = biological target: T6, FGFR1 (Homo sapiens, UniProt P11362, C488A/C584S); experiment: AlphaScreen kinase assay, FGFR1; conditions: read-out: IC50, activity toward kinase FGFR
T6 construct: P1351.pET N6 BI-PTP FGFR A458-E765-X C488A, C584S; made in house; host or cells: E. coli (PTP1B co-expressed)
T6 sequence (P11362 458-765 C488A/C584S): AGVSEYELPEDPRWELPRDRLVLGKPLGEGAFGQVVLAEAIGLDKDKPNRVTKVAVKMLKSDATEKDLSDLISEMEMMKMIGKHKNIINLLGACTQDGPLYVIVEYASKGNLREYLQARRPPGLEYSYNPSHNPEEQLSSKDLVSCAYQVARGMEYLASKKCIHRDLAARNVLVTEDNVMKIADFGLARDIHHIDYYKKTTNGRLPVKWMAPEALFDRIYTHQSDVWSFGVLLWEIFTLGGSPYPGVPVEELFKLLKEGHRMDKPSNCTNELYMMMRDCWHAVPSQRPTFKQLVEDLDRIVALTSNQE

T1 sequence (P10721 with tags, fused parts or gaps): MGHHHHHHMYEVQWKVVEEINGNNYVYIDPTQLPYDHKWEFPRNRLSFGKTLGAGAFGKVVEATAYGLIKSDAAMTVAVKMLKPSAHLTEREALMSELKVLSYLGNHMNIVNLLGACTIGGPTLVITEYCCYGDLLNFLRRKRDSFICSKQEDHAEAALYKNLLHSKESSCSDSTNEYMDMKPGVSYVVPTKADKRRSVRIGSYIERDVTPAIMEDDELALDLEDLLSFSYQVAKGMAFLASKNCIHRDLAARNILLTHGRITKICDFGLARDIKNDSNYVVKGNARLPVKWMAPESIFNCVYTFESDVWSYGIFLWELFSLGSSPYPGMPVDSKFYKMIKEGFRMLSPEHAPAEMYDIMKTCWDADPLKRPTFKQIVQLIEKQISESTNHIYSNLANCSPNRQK
T5 sequence (P15056 with tags, fused parts or gaps V600E): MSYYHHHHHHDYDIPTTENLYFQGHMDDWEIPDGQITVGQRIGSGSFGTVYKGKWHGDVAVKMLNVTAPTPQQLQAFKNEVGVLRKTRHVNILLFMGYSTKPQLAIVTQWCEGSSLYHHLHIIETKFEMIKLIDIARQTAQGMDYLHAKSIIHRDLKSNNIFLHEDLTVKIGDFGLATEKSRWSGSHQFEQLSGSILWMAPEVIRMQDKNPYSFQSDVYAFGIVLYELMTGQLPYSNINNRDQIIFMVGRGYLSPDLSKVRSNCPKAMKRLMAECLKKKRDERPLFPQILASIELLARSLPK
T4 sequence (P07333 20-972): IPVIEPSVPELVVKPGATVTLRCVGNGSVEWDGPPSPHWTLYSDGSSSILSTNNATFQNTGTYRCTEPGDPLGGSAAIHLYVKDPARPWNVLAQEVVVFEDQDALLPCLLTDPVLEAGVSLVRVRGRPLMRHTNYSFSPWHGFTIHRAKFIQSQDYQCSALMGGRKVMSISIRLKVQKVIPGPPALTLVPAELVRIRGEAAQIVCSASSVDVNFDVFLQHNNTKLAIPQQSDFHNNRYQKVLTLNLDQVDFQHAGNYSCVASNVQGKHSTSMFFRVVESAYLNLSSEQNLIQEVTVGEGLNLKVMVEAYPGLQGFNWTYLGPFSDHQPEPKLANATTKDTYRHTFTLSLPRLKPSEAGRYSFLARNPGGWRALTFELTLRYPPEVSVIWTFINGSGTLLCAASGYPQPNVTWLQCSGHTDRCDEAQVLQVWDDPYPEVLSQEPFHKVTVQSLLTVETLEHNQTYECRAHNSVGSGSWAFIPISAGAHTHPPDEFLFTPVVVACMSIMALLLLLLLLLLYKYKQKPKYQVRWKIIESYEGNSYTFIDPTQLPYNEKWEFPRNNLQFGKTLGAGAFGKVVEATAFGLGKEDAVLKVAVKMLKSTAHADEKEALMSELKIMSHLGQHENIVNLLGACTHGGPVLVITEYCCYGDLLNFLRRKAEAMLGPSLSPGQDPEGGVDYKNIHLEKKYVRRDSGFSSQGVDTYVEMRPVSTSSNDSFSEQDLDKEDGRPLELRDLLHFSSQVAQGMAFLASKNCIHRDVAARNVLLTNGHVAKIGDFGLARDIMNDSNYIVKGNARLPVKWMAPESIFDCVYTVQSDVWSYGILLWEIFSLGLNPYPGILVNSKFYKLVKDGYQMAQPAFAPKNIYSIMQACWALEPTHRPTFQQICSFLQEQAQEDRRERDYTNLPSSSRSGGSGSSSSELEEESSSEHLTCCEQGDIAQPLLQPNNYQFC

| SMILES | IC50 (Kit) | IC50 (Ret) | IC50 (Flt1) | IC50 (Fms) | IC50 (B-Raf V600E) | IC50 (FGFR1) |
| --- | --- | --- | --- | --- | --- | --- |
| O=C(c1ccc(Cl)cc1)c1c[nH]c2ncc(Br)cc12 [Compound P-1033] | ≤ 10 µM | ≤ 10 µM | – | – | – | – |
| Fc1ccc(-c2c[nH]c3ncccc23)c(F)c1 [Compound P-0470] | – | – | ≤ 10 µM | – | – | – |
| CS(=O)(=O)c1cccc(-c2cnc3[nH]cc(Cc4c(F)ccc(NC(=O)NC5CCCC5)c4F)c3c2)c1 [Compound P-1615, 1-Cyclopentyl-3-{2,4-difluoro-3-[5-(3-methanesulfonyl-phenyl)-1H-pyrrolo[2,3-b]pyridin-3-ylmethyl]-phenyl}-urea] | – | – | ≤ 10 µM | ≤ 10 µM | – | – |
| CCCCNC(=O)Nc1ccc(F)c(Cc2c[nH]c3ncc(OC)cc23)c1F [Compound P-1571, 1-Butyl-3-[2,4-difluoro-3-(5-methoxy-1H-pyrrolo[2,3-b]pyridin-3-ylmethyl)-phenyl]-urea] | – | – | ≤ 10 µM | ≤ 10 µM | – | – |
| O=C(NCC(F)(F)F)Nc1ccc(F)c(Cc2c[nH]c3ncc(Cl)cc23)c1F [Compound P-1601, 1-[3-(5-Chloro-1H-pyrrolo[2,3-b]pyridin-3-ylmethyl)-2,4-difluoro-phenyl]-3-(2,2,2-trifluoro-ethyl)-urea] | – | – | ≤ 10 µM | – | ≤ 10 µM | – |
| CCCCNC(=O)Nc1ccc(F)c(Cc2c[nH]c3ncc(Cl)cc23)c1F [Compound P-1587, 1-Butyl-3-[3-(5-chloro-1H-pyrrolo[2,3-b]pyridin-3-ylmethyl)-2,4-difluoro-phenyl]-urea] | – | – | ≤ 10 µM | ≤ 10 µM | – | – |
| CC(=O)Nc1cccc(-c2cnc3[nH]cc(C(=O)c4cccc(OC(F)(F)F)c4)c3c2)c1 [Compound P-1422, N-{3-[3-(3-Trifluoromethoxy-benzoyl)-1H -pyrrolo[2,3-b]pyridin-5-yl]-phenyl}-acetamide] | ≤ 10 µM | – | ≤ 10 µM | – | – | – |
| COc1cccc(Cc2c[nH]c3nccc(-c4ccsc4)c23)n1 [Compound P-0810] | ≤ 10 µM | ≤ 10 µM | – | – | ≤ 10 µM | – |
| Cc1ccccc1S(=O)(=O)NCc1c[nH]c2ncccc12 [Compound P-0768] | – | – | ≤ 10 µM | – | – | – |
| COC(=O)Nc1cccc(C(=O)c2c[nH]c3ncc(Cl)cc23)c1 [Compound P-1619] | – | – | ≤ 10 µM | – | – | – |
| O=S(=O)(NCc1c[nH]c2ncccc12)c1cc(Cl)sc1Cl [Compound P-0603] | – | – | ≤ 10 µM | – | ≤ 10 µM | – |
| O=C(NCCN1CCOCC1)Nc1ccc(F)c(Cc2c[nH]c3ncc(Cl)cc23)c1F [Compound P-1594, 1-[3-(5-Chloro-1H-pyrrolo[2,3-b]pyridin-3-ylmethyl)-2,4-difluoro-phenyl]-3-(2-morpholin-4-yl-ethyl)-urea] | – | – | ≤ 10 µM | ≤ 10 µM | ≤ 10 µM | – |
| c1ccc(CNc2ccc(Cc3c[nH]c4ncccc34)cn2)cc1 [Compound P-0733] | – | – | ≤ 10 µM | ≤ 10 µM | – | – |
| O=C(c1cc(F)ccc1F)c1c[nH]c2ncc(-c3ccsc3)cc12 [Compound P-0699] | ≤ 10 µM | ≤ 10 µM | – | – | – | ≤ 10 µM |
| NC(=O)c1cccc(-c2cnc3[nH]ccc3c2)c1 [Compound P-1622, 3-(1H-Pyrrolo[2,3-b]pyridin-5-yl)-benzamide] | – | – | ≤ 10 µM | – | – | ≤ 10 µM |
| COc1cccc(Cc2c[nH]c3ncc(-c4ccsc4)cc23)c1 [Compound P-0392] | ≤ 10 µM | ≤ 10 µM | – | – | – | ≤ 10 µM |
| Cc1cc(C(=O)c2c[nH]c3ncc(-c4cccc(NS(C)(=O)=O)c4)cc23)n(C)n1 [Compound P-0825] | ≤ 10 µM | ≤ 10 µM | – | – | – | – |
| CS(=O)(=O)c1cccc(-c2cnc3[nH]cc(Cc4c(F)ccc(N)c4F)c3c2)c1 [Compound P-1614] | – | – | ≤ 10 µM | – | ≤ 10 µM | ≤ 10 µM |
| COc1cccc(C(=O)c2c[nH]c3ncc(Br)cc23)c1 [Compound P-0341] | ≤ 10 µM | ≤ 10 µM | – | – | – | ≤ 10 µM |
| c1cc(Cc2c[nH]c3ncc(-c4ccsc4)cc23)cc(OCCOC2CCCCO2)c1 (stereo not shown) [Compound P-0835] | ≤ 10 µM | ≤ 10 µM | – | ≤ 10 µM | – | ≤ 10 µM |

| SMILES | IC50 (Kit) | IC50 (Ret) | IC50 (Flt1) | IC50 (Fms) | IC50 (B-Raf V600E) | IC50 (FGFR1) |
| --- | --- | --- | --- | --- | --- | --- |
| O=C(c1ccccc1)c1c[nH]c2ncc(Br)c([N+](=O)[O-])c12 [Compound P-0736] | ≤ 10 µM | ≤ 10 µM | – | – | – | – |
| CCCn1cccc1C(c1c[nH]c2ncc(-c3cccnc3)cc12)n1ccc2cc(-c3cccnc3)cnc21 (stereo not shown) [Compound P-1686] | – | – | ≤ 10 µM | – | – | – |
| CC(=O)Nc1cccc(-c2cnc3[nH]cc(C(=O)c4cccc(OC(F)F)c4)c3c2)c1 [Compound P-1424, N-{3-[3-(3-Difluoromethoxy-benzoyl)-1H-pyrrolo[2,3-b]pyridin-5-yl]-phenyl}-acetamide] | ≤ 10 µM | – | ≤ 10 µM | – | – | ≤ 10 µM |
| CS(=O)(=O)Nc1ccc(F)c(Cc2c[nH]c3ncccc23)c1F [Compound P-1603, N-[2,4-Difluoro-3-(1H-pyrrolo[2,3-b]pyridin-3-ylmethyl)-phenyl]-methanesulfonamide] | – | – | ≤ 10 µM | – | – | ≤ 10 µM |
| Cc1nc(NCc2ccc(C(F)(F)F)cc2)ccc1Cc1c[nH]c2ncccc12 [Compound P-1112] | – | – | ≤ 10 µM | ≤ 10 µM | ≤ 10 µM | – |
| c1ccc(C(CNCc2c[nH]c3ncccc23)c2ccccc2)cc1 [Compound P-0514] | – | – | ≤ 10 µM | – | – | – |
| O=C(c1c(F)ccc(NC(=O)N2CCOCC2)c1F)c1c[nH]c2ncc(Cl)cc12 [Compound P-1606, Morpholine-4-carboxylic acid [3-(5-chloro-1H-pyrrolo[2,3-b]pyridine-3-carbonyl)-2,4-difluoro-phenyl]-amide] | – | – | ≤ 10 µM | ≤ 10 µM | ≤ 10 µM | – |
| O=C(c1ccccc1)c1c[nH]c2ncc(Br)cc12 [Compound P-0561] | ≤ 10 µM | ≤ 10 µM | – | – | – | ≤ 10 µM |
| O=C(c1ccc(Nc2ccccc2)nc1)c1c[nH]c2ncccc12 [Compound P-1160] | ≤ 10 µM | – | ≤ 10 µM | – | ≤ 10 µM | – |
| CN(C)c1ccc(Cc2c[nH]c3ncccc23)cc1 [Compound P-0150] | – | – | ≤ 10 µM | – | – | ≤ 10 µM |
| Clc1ccc(Cc2c[nH]c3ncc(-c4ccsc4)cc23)cn1 [Compound P-0385] | ≤ 10 µM | ≤ 10 µM | – | – | – | ≤ 10 µM |
| O=C(c1c[nH]c2ccccc12)c1c[nH]c2ncc(Br)cc12 [Compound P-1624] | – | – | ≤ 10 µM | – | – | ≤ 10 µM |
| O=C(c1cc(Cl)ccc1F)c1c[nH]c2ncc(-c3cccs3)cc12 [Compound P-0644] | ≤ 10 µM | ≤ 10 µM | – | – | – | – |
| O=C(c1ccc(NCc2ccc(F)cc2)nc1)c1c[nH]c2ncccc12 [Compound P-0491] | – | – | ≤ 10 µM | ≤ 10 µM | – | – |
| CCOc1ccccc1C(O)c1c[nH]c2ncc(-c3cccnc3)cc12 (stereo not shown) [Compound P-1533] | – | – | ≤ 10 µM | – | – | – |
| COc1ccc(C(=O)c2c[nH]c3ncc(-c4cccs4)cc23)c(Cl)c1 [Compound P-0248] | ≤ 10 µM | ≤ 10 µM | – | – | ≤ 10 µM | ≤ 10 µM |
| O=C(c1ccc(Cl)cc1Cl)c1c[nH]c2ncc(-c3ccccc3)cc12 [Compound P-1557] | ≤ 10 µM | – | ≤ 10 µM | – | – | – |
| COc1cnc2[nH]cc(Cc3c(F)ccc(NC(=O)NC4CCCC4)c3F)c2c1 [Compound P-1572, 1-Cyclopentyl-3-[2,4-difluoro-3-(5-methoxy-1H-pyrrolo[2,3-b]pyridin-3-ylmethyl)-phenyl]-urea] | – | – | ≤ 10 µM | ≤ 10 µM | ≤ 10 µM | – |
| Clc1ccc(Nc2c[nH]c3ncccc23)cc1 [Compound P-1491, (4-Chloro-phenyl)-(1H-pyrrolo[2,3-b]pyridin-3-yl)-amine] | – | – | ≤ 10 µM | ≤ 10 µM | – | – |
| O=C(c1ccc(NCc2ccc(C(F)(F)F)cc2)nc1)c1c[nH]c2ncccc12 [Compound P-0461] | – | – | ≤ 10 µM | ≤ 10 µM | – | – |

Reference: patent publication US8415469B2, “Compounds and methods for kinase modulation, and indications therefor” (Plexxikon Inc., priority 2005, dated 2013)
